Results as given in publication PMC7552917, “Systematic exploration of different E3 ubiquitin ligases: an approach towards potent and selective CDK6 degraders” (Chemical Science, 2020).
Read-outs that look alike come from different tables or passages of the source.

Tests used:
CDK4 = molecular target: T1, CDK4 (Homo sapiens, UniProt P11802); test: CDK4 degradation, western blot of MM.1S cells; type: cell-based; conditions: 16 h; for remaining activity at 0.1 µM: MM1.S, read-out: D CDK4: remaining CDK4 levels
T1 construct: Percentage values are normalized to DMSO-treated MM.1S cells and the respective loading controls; endogenous in cells; host or cells: MM.1S (human multiple myeloma)
Excerpt: (§1) We determined the concentration of both kinases and CRBN, the latter in order to control the expression of the corresponding ligase. Since IMiDs, such as pomalidomide, cause the degradation of the lymphoid transcription factors Ikaros (IKZF1) and Aiolos (IKZF3) through the involvement of CRBN,[53],[54] this undesired effect was inspected. […] As further characteristics of CDK4/6d, the desired selectivity of CDK6 over CDK4 degradation and the unwanted influence on the IKZF1 concentration were determined. […] Next, we determined the concentration- and time-dependent activity of 11 (Fig. S2, ESI ^†).
(§2) Multiple myeloma, leukaemia, and murine cell lines:
(§3) After respective designated treatments, cells were washed with 1× PBS and lysed in IP lysis buffer (Pierce) containing HALT protease and phosphatase inhibitor cocktail (Thermo Scientific). Sodium dodecyl sulfate-polyacrylamide gel electrophoresis (SDS-PAGE) was performed with 5–20 µg of protein loaded per sample. Gel electrophoresis was carried out at a constant voltage. Proteins were transferred onto Immobilon-P transfer membranes (Millipore). Membranes were blocked with 5% milk in Tris Buffered Saline with 0.05% Tween 20 (TBS-T) followed by overnight incubation at 4 °C with shaking in primary antibodies diluted in 5% BSA in TBS-T. After incubation with respective secondary HRP-conjugated antibodies diluted in 5% milk in TBST, detection of proteins was performed using either WesternBright ECL HRP substrate or WesternBright Sirius HRP substrate (Advansta). Chemiluminescence was detected with ChemiDoc™ XRS+ System (Bio-Rad). For further detection of other proteins on the same membrane, membranes were subjected to incubation in Restore Western Blot Stripping Buffer, followed by re-blocking, and further probing of proteins was […]

CDK6 = molecular target: T2, CDK6 (Homo sapiens, UniProt Q00534); test: CDK6 degradation, western blot of MM.1S cells; type: cell-based; conditions: for remaining activity at 0.1 µM / remaining activity at 1 µM: read-out: D CDK6: remaining CDK6 levels; for Time CDK6 degradation persists (CDK6 protein below 50%) after drug washout: 0.1 μM for 16 h, then washout with PBS; for Persistence of CDK6 degradation after single drug exposure (long-term treatment): no washout
T2 construct: Percentage values are normalized to DMSO-treated MM.1S cells and the respective loading controls; endogenous in cells; host or cells: MM.1S (human multiple myeloma)
Excerpt: as §1, §2, §3

MDA-MB-231 cells [1] = test: Cell migration (wound-healing) assay; type: cell-based, human; conditions: 0.1 μM, 24 h post-scratch
Method: In total 800.000 MDA-MB-231 breast cancer cells were seeded on uncoated 24-well plates (Starlab).
After 24 h DMEM medium (Pan Biotech) was removed, wells were washed twice with PBS and incubated with 0.1 µM palbociclib, 0.1 µM 34, 0.1 µM VH298 or DMSO in fresh FCS-free medium.
After 24 h of incubation, a scratch was conducted with a 100 µL pipette tip (Starlab), medium was removed, wells were washed twice with PBS and again incubated with fresh FCS-free medium containing the compounds at the aforementioned concentrations. Wound healing was observed microscopically for 24 h with 10-fold magnification (Axiovert 100, Zeiss, Germany). Migration speed was quantified according to the reduced scratch wound area over time.
(§4) Dose response curves were modeled and plotted by using GraphPad Prism software (GraphPad Software). Statistical analysis was performed using GraphPad Prism software (GraphPad Software).
(§5) Variance of biological replicates is represented as the standard error of the mean (SEM) or as the […]

[2] = elog D7.4 by chromatographic (HPLC) method; type: physicochemical; conditions: Polaris C18-A column, pH 7.4, read-out: elog D7.4 (experimental distribution coefficient at pH 7.4)
Method: Supplementary Information: Physical Chemistry
N. Molecular Descriptor Calculation […]
O. Physicochemical Measurements
The determination of the elog D7.4 values was performed by a chromatographic method according to […]
The column was a Polaris C18-A column (2 mm I.D., 50 mm length, 3 μm particle size) from Agilent Technologies. A linear mobile phase gradient was applied with […] TRIS buffer adjusted to pH 7.4 and MeCN. Therefore, the gradient was run from 5% […]
between the runs with a constant flow-rate of 0.8 ml/min and a temperature of 25 °C. The output wavelength of the detector was set to 269.5 nm. In order to calibrate the log D7.4 to the retention time, 6 different drugs with known log D7.4 were dissolved in DMSO and 10 µl were injected […]
Approximately 1 mg of the samples was dissolved in DMSO and 5 µl were injected. Analyses were conducted in duplicates. Subsequently, the mean retention times of the analytes were taken to calculate their log D7.4 values with aid of the calibration line.

HEL cells = test: Cell viability assay (CellTiter-Glo), HEL cells; type: cell-based; conditions: Homo sapiens, 96 h
Method: as §2
(§6) Cells were seeded in 96-well plates with media containing indicated concentrations of respective compounds and plates were incubated at 37 °C for 96 hours. Readout was performed with CellTiter-Glo® Luminescent Cell Viability Assay (Promega) according to the manufacturer’s protocol and luminescence was measured with POLARStar Omega plate reader (BMG LabTech). All results were normalized to non-treated conditions and data represent mean ±SD of biological triplicates. […]
as §4, §5

MDA-MB-231 cells [3] = test: Cell viability assay (CellTiter-Glo), MDA-MB-231 breast cancer cells; type: cell-based, human; conditions: 96 h
Method: Breast cancer cell lines:
To access the compound effect on cell viability, cells were plated in 384-well tissue culture-treated plates (Greiner Bio One). Twenty-four hours later, tested compounds were added into culture to the desired concentrations. Cell viability was measured by using CellTiter-Glo® Luminescent Cell Viability Assay (Promega) at day 4 or day 7 post-treatment and normalized by non-treated controls. […]
as §4, §5

[4] = test system: MM.1S, LP-1, AMO-1, MOLM-13, HEL, KG-1, K562, Nalm-6; test: Cell viability assay (CellTiter-Glo), multiple myeloma and leukemia cell lines; type: cell-based, human; conditions: 96 h, 0.1 or 1 μM; for Effect on cell proliferation: MM.1S, LP-1, AMO-1, MOLM-13, HEL, KG-1, K562, Nalm-6
Method: as §2, §6, §4, §5

[5] = Susceptibility to hydrolysis in buffer, LC/MS; type: physicochemical; conditions: buffer pH 1, 24 h, 37 °C
Method: Next, we investigated the persistence of CDK6 degradation after single drug exposure. […] The differences were even more pronounced when conducting a drug washout-step, showing that while BSJ-03-123 kept CDK6 protein below 50% for a maximum of 6 h, CDK6 degradation mediated by PROTACs 27 and 34 was more persistent and stable for up to 72 h (Fig. 4E and S10, ESI ^†). […] Since these degraders mainly differ in the ligase-binding part, we hypothesized that the deviations in the long-term experiments (Fig. 5A) are due to chemical inactivation of the CRBN ligand. We then tested compounds 27, 34 (VHL-based) and BSJ-03-123 (8, CRBN-based) for susceptibility to hydrolysis. These PROTACs were incubated in two different buffers for 24 h at 37 °C and aliquots were analysed by LC/MS.
Fig. 5 (A) Quantification of long-term treatment experiments (see Fig. S9, ESI ^†) and (B) drug stability data at pH 1 and pH 7.4. Acetonitrile solutions of the PROTACs were mixed with two different buffers and incubated for 24 hours at 37 °C. Subsequently, aliquots were analysed by LC/MS and normalized to acetonitrile solutions.

[6] = 0.1 μM, MM.1S cells, normalized to DMSO (100%)
[7] = MM1.S, 0.1 μM, 16 h, MM.1S cells, normalized to DMSO (100%)
[8] = MM1.S, 1 μM, 16 h, MM.1S cells, normalized to DMSO (100%)

T2 sequence (Q00534 whole entry): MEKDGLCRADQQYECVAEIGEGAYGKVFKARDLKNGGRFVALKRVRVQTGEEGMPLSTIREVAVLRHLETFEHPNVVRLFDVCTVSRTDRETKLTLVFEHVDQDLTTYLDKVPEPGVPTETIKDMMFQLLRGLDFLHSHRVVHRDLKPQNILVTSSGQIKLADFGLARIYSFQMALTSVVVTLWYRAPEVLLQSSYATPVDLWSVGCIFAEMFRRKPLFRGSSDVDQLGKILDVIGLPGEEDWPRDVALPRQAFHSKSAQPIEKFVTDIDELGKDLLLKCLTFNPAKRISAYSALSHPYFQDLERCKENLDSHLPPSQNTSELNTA
T1 sequence (P11802 whole entry): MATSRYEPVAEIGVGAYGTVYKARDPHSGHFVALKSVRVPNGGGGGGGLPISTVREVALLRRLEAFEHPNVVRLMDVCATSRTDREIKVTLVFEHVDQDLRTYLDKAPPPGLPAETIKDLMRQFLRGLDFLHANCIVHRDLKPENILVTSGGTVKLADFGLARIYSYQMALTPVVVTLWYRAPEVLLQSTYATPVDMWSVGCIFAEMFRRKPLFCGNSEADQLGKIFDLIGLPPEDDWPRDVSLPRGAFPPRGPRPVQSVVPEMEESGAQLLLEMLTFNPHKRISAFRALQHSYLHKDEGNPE

chromatographic logD [2]	remaining activity at 0.1 µM (CDK4; [6]) [%]	Selectivity ratio D CDK4/D CDK6 for the degradation of CDK6 over CDK4 (CDK6; 0.1 μM, 16 h, MM.1S cells)	remaining activity at 0.1 µM (CDK6; [7]) [%]	remaining activity at 1 µM (CDK6; [8]) [%]	Time CDK6 degradation persists (CDK6 protein below 50%) after drug washout (CDK6; MM.1S cells)	Stability to hydrolysis at pH 1 [5]	DC50 (CDK4; MM.1S cells) [nM]	Dmax (CDK6; MM1.S, MM.1S cells, 16 h, at a concentration as low as 100 nM, read-out: Dmax: maximum of CDK6 degradation) [%]	DC50 (CDK6; MM.1S cells, 16 h, 1 μM value excluded (hook effect)) [nM]	IC50 (MDA-MB-231 cells [3]; Homo sapiens) [nM]	SMILES	remaining activity at 0.1 µM (CDK4) [%]	remaining activity at 0.1 µM (CDK6; MM1.S, 16 h) [%]	Reduction of wound healing (MDA-MB-231 cells [1])	Persistence of CDK6 degradation after single drug exposure (long-term treatment) (CDK6; MM.1S cells)	IC50 (HEL cells) [nM]	Inhibitory activity on cell viability relative to palbociclib (MDA-MB-231 cells [3])	Effect on cell proliferation [4]	remaining activity at 1 µM (CDK6; MM1.S, 16 h) [%]	Cell viability compared with palbociclib, VHL-series PROTACs and IAP ligand 5 ([4]; MM.1S and Nalm-6 cells)
–	–	–	–	–	–	–	–	–	–	–	Cc1ncsc1-c1ccc(CNC(=O)[C@@H]2C[C@@H](O)CN2C(=O)[C@@H](NC(=O)C2(C#N)CC2)C(C)(C)C)cc1 [4 (VH298), VH298, reference compound]	> 95	> 95	did not affect the ability of MDA-MB-231 cells to migrate	–	–	–	–	–	–
2.9	33	19	1.7	15	up to 72 h	stable	–	–	–	–	CC(=O)c1c(C)c2cnc(Nc3ccc(N4CCN(CCOCCOCCOCC(=O)N[C@H](C(=O)N5C[C@H](O)C[C@H]5C(=O)N[C@@H](C)c5ccc(-c6scnc6C)cc5)C(C)(C)C)CC4)cn3)nc2n(C2CCCC2)c1=O [27 (CST620)]	–	–	–	satisfactory CDK6 level suppression even after 96 h	1540	inhibitory activity comparable to palbociclib	inhibited cell proliferation	–	–
3.1	44	31	1.4	8.5	up to 72 h	stable	20	> 95	5.1	–	CC(=O)c1c(C)c2cnc(Nc3ccc(N4CCN(CCOCCOCCOc5cc(-c6scnc6C)ccc5CNC(=O)[C@@H]5C[C@@H](O)CN5C(=O)[C@@H](NC(=O)C5(F)CC5)C(C)(C)C)CC4)cn3)nc2n(C2CCCC2)c1=O [34 (CST651)]	–	–	29%	satisfactory CDK6 level suppression even after 96 h	450	inhibitory activity comparable to palbociclib	inhibited cell proliferation	–	–
–	–	–	–	–	–	–	–	–	–	260	CC(=O)c1c(C)c2cnc(Nc3ccc(N4CCNCC4)cn3)nc2n(C2CCCC2)c1=O [palbociclib, reference compound]	–	–	17%	–	4160	–	–	–	–

SMILES	chromatographic logD [2]	remaining activity at 0.1 µM (CDK4; [6]) [%]	Selectivity ratio D CDK4/D CDK6 for the degradation of CDK6 over CDK4 (CDK6; 0.1 μM, 16 h, MM.1S cells)	remaining activity at 0.1 µM (CDK6; [7]) [%]	remaining activity at 1 µM (CDK6; [8]) [%]	Time CDK6 degradation persists (CDK6 protein below 50%) after drug washout (CDK6; MM.1S cells)	Stability to hydrolysis at pH 1 [5]	DC50 (CDK4; MM.1S cells) [nM]	Dmax (CDK6; MM1.S, MM.1S cells, 16 h, at a concentration as low as 100 nM, read-out: Dmax: maximum of CDK6 degradation) [%]	DC50 (CDK6; MM.1S cells, 16 h, 1 μM value excluded (hook effect)) [nM]	IC50 (MDA-MB-231 cells [3]; Homo sapiens) [nM]	remaining activity at 0.1 µM (CDK4) [%]	remaining activity at 0.1 µM (CDK6; MM1.S, 16 h) [%]	Reduction of wound healing (MDA-MB-231 cells [1])	Persistence of CDK6 degradation after single drug exposure (long-term treatment) (CDK6; MM.1S cells)	IC50 (HEL cells) [nM]	Inhibitory activity on cell viability relative to palbociclib (MDA-MB-231 cells [3])	Effect on cell proliferation [4]	remaining activity at 1 µM (CDK6; MM1.S, 16 h) [%]	Cell viability compared with palbociclib, VHL-series PROTACs and IAP ligand 5 ([4]; MM.1S and Nalm-6 cells)
CN[C@@H](C)C(=O)N[C@H](C(=O)N1C[C@@H](Oc2cccc(OCCOCCOCCOCCN3CCN(c4ccc(Nc5ncc6c(C)c(C(C)=O)c(=O)n(C7CCCC7)c6n5)nc4)CC3)c2)C[C@H]1C(=O)N[C@@H]1CCCc2ccccc21)C1CCCCC1 [compound 35]	4.3	–	–	–	–	–	–	–	–	–	–	77	75	–	–	–	–	–	18	more strongly impaired
